For data set [1] the following is noted: cited from earlier work.
The conditions of data set [2]: cited from earlier work. This is another data set of the same source.
A short description of data set [3]: Water solubility / appearance and pH of solution on mixing, dilution and standing. The class given is physicochemical. The note with it: TEPA 2.0 g in water 94.0 g. An excerpt: In Example 1 (within the scope of the invention), when LAS acid was neutralized with a polyamine (i.e., TEPA), it formed PAAS. As PAAS began forming, the solution became hazy. Upon further addition of the LAS acid, the hazy solution became a dispersion. Upon standing for hours, the dispersion formed a layer of sediment at the bottom of the beaker. Even a very diluted formulation (such as below 0.1%) was hazy.
The solution was clear at the all time over the entire pH range, leading to the conclusion that Na-LAS was fully ionized or disassociated.
Sodium xylenesulfonate was added to an aqueous PAAS dispersion to attempt to solubilize PAAS by ion-exchange and/or hydrotrope mechanism.
Example 1 was repeated, except that fatty acid was used in place of LAS acid. […]
This example investigated the solubilization of PAAS in water, with the aid of a solubiliser. A dispersion of PAAS (with LAS and fatty acid as conjugated acid) was mixed with Na-LES solution (59.5% Na-LES, 10% propylene glycol, 6.5% ethanol, and balance of water). […]

The mark [4] stands for this setting: from CRC Handbook of Chemistry and Physics, 83rd Edition.
Setting [5] is: * from Huntsman Technical Bulletin "Amine applications and properties data applications".

Read-outs that look alike come from different tables or passages of the source.

In the case of `CC(N)(O)CN` (centres unmarked) [1,2-diamino-2-propanol], in data set [1] (setting [4]), the pKa1 is 9.69 and the pKa2 is recorded as 7.93.

Take `CC(N)CN` (centres unmarked) [1,2-propanediamine]: in data set [1] (setting [4]), the pKa1 was 9.82 and the pKa2 is reported as 6.61. As for `NCCCN` [1,3-propanediamine], the pKa2 in data set [1] (setting [4]) is 8.88. As a reminder, the pKa is the negative logarithm of the acid dissociation constant. On to `NCCCCN` [1,4-Butanediamine], for which, in data set [1] (setting [4]), the pKa was 10.80. Regarding `NCCCCCN` [1,5-pentanediamine], in data set [1] (setting [4]), the pKa1 is listed as 10.25 and the pKa2 is reported as 9.13.

On to `NCCCCCCN` [1,6-Hexanediamine], for which, in data set [1] (setting [4]), the pKa1 was 11.86 and the pKa2 is on record as 10.76. As to `CC(C)(C)CN` [2,2-dimethylpropylamine], the pKa in data set [1] (setting [4]) is 10.15. As for `COCCN` [2-mthyloxyethylamine], the pKa in data set [1] (setting [4]) is given as 9.40. For the compound `NC1CCCCC1` [Cyclohexylamine], the pKa in data set [1] (setting [4]) is recorded as 10.64.

Take `NCCN` [Ethylenediamine (EDA), Ethylenediamine]: the pKa in data set [1] (setting [5]) is 9.90*. In data set [1] (setting [4]), the pKa1 is listed as 9.92 and the pKa2 was 6.82. Take `[K+].[OH-]` [KOH, potassium hydroxide]: the results for the pH in data set [2] (0.01 N) and in data set [2] (1.0 N aqueous solutions) were 12.0 and 14.0, respectively. As to `CNO` [Methylhydroxylamine], the pKa in data set [1] (setting [4]) is on record as 12.50. As to `CN(C)CCN(C)C` [N,N,N',N'-Tetramethyl1,2-ethanediamine], in data set [1] (setting [4]), the pKa1 is 10.40 and the pKa2 is on record as 8.26. On to `[Na+].[OH-]` [NaOH, sodium hydroxide], for which the values for the pH in data set [2] (0.01 N) and in data set [2] (1.0 N aqueous solutions) were 12.0 and 14.0, respectively. On to `NCCNCCNCCNCCN` [TEPA, Tetraethylenepentamine], for which the Observations entry in data set [3] is reported as “Clear”. For `NCCNCCNCCN` [Triethylenetetramine (TETA), Triethylenetetramine], the pKa in data set [1] (setting [5]) is 9.80*. ethoxide CH3CH2O^-: the pKa in data set [1] (according to McMurry, Organic Chemistry, p. 45, 1984) is reported as 16.

The values above are taken from patent EP1664254B9, “LIQUID LAUNDRY DETERGENT WITH POLYANIONIC AMMONIUM SURFACTANT” (priority 2003, dated 2005).
